Here are results for 38 compounds from patent US9493434B2, “Substituted indenes as medicaments” (LABORATORIOS DEL DR. ESTEVE S.A., priority 2012, dated 2016).

The structures appear in SMILES notation. Counter-ions that a name gives are not always drawn.

T1 sequence (Q60492 whole entry): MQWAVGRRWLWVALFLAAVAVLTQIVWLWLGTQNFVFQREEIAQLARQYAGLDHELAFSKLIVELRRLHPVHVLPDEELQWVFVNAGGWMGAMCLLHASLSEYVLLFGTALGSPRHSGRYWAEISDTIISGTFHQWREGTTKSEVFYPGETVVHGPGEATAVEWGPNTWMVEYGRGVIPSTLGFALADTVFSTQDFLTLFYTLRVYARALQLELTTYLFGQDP

This test has as its target T1, σ1-receptor (Cavia porcellus, UniProt Q60492).
T1 construct: Guinea pig brains were homogenized in 10 vols; (w/v) of Tris-HCl 50 mM 0.32 M sucrose, pH 7.4; from tissue; host or cells: guinea pig brain membranes
The test is described as follows: σ1-receptor binding assay, [3H]-(+)-pentazocine, guinea pig brain membranes. To be noted: radioligand [3H]-(+)-pentazocine 5.0 nM, 150 min at 37° C., nonspecific binding with 1 μM haloperidol. As to the method:
Brain membrane preparation and binding assays for the σ1-receptor were performed as described (DeHaven-Hudkins, D. L., L. C. Fleissner, and F. Y. Ford-Rice, 1992, Characterization of the binding of [^3H](+)pentazocine to […] recognition sites in guinea pig brain, Eur. J. Pharmacol. 227, 371-378) with some modifications. Guinea pig brains were homogenized in 10 vols. (w/v) of Tris-HCl 50 mM 0.32 M sucrose, pH 7.4, with a Kinematica Polytron PT 3000 at 15000 r.p.m. for 30 s. The homogenate was centrifuged at 1000 g for 10 min at 4° C. and the supernatants collected and centrifuged again at 48000 g for 15 min at 4° C. The pellet was resuspended in 10 volumes of Tris-HCl buffer (50 mM, pH 7.4), incubated at 37° C. for 30 min, and centrifuged at 48000 g for 20 min at 4° C. Following this, the pellet was re-suspended in fresh Tris-HCl buffer (50 mM, pH 7.4) and stored on ice until use.
The radioligand used was [^3H]-(+)-pentazocine at 5.0 nM and the final volume was 200 μl. The incubation was initiated with the addition of 100 μl of membrane at a final tissue concentration of approximately 5 mg tissue net weight/mL and the incubation time was 150 m. at 37° C. After incubation, the membranes were collected onto pretreated glass fiber filterplate (MultiScreen-FC, Millipore), with polyethylenimine 0.1%. The filters were washed two times with 200 μl of washing buffer (50 mM Tris CI, pH=7.4) and then 25 μl of Ecoscint H liquid scintillation cocktail were added. Microplates were allowed to set for several hours and then quantified by liquid scintillation spectrophotometry (1450 Microbeta, Wallac). Nonspecific binding was determined with 1 μM haloperidol.
The compound `C1=C(CCN2CCOCC2)c2cccc(-c3ccccc3)c2C1` [Compound 1, 4-(2-(7-phenyl-1H-inden-3-yl)ethyl)morpholine maleate] showed an inhibition constant (Ki) of 3 nM.

For `COc1ccc(-c2cccc3c2CC=C3CCN2CCOCC2)cn1` [Compound 39, 4-(2-(7-(6-methoxypyridin-3-yl)-1H-inden-3-yl)ethyl)morpholine maleate], the Ki came out at 180 nM.

With `C1=C(CCN2CCCCCC2)c2cccc(-c3ccccc3)c2C1` [Compound 9, 1-(2-(7-phenyl-1H-inden-3-yl)ethyl)azepane maleate], the Ki was 7 nM. Against the preceding compound, the Ki is about 26-fold lower.

Turning to `Fc1ccc(-c2cccc3c2CC=C3CCN2CCCCC2)cc1` [Compound 15, 1-(2-(7-(4-fluorophenyl)-1H-inden-3-yl)ethyl)piperidine maleate], the Ki turned out to be 8 nM. This Ki and that of the compound before are within 1.5-fold of each other. In turn, `CC1=C(CCN2CCN(C)CC2)c2cccc(-c3ccccc3)c2C1` [Compound 12, 1-methyl-4-(2-(2-methyl-7-phenyl-1H-inden-3-yl)ethyl)piperazine maleate] registered an inhibition constant (Ki) of 51 nM. Take `CN1CCN(CCC2=CCc3c2cccc3-c2ccnn2C)CC1` [Compound 38, 1-methyl-4-(2-(7-(1-methyl-1H-pyrazol-5-yl)-1H-inden-3-yl)ethyl)piperazine maleate]: the Ki came out at 30 nM. This Ki lies about 1.7-fold lower than the previous one. The compound `CN1CCN(CCC2=CCc3c2cccc3-c2ccc(Cl)c(Cl)c2)CC1` [Compound 20, 1-(2-(7-(3,4-dichlorophenyl)-1H-inden-3-yl)ethyl)-4-methylpiperazine maleate] yielded an inhibition constant Ki of 25 nM. With `C1=C(CCN2CCC(c3ccccc3)CC2)c2cccc(-c3ccccc3)c2C1` [Compound 10, 4-phenyl-1-(2-(7-phenyl-1H-inden-3-yl)ethyl)piperidine maleate], the affinity, expressed as Ki, was 13 nM. With `CN1CCN(CCC2=CCc3c2cccc3-c2ccsc2)CC1` [Compound 26, 1-methyl-4-(2-(7-(thiophen-3-yl)-1H-inden-3-yl)ethyl)piperazine maleate] the figure was 7 nM; with `CN1CCN(CCC2=CCc3c2cccc3-n2ccnn2)CC1` [Compound 27, 1-(2-(7-(1H-1,2,3-triazol-1-yl)-1H-inden-3-yl)ethyl)-4-methylpiperazine maleate], 185 nM. As for `COc1ccc(-c2cccc3c2CC=C3CCN2CCOCC2)cc1` [Compound 21, 4-(2-(7-(4-methoxyphenyl)-1H-inden-3-yl)ethyl)morpholine maleate], the Ki amounted to 53 nM. With `C1=C(CCN2CCOCC2)c2cccc(-c3ccncc3)c2C1` [Compound 3, 4-(2-(7-(pyridin-4-yl)-1H-inden-3-yl)ethyl)morpholine maleate] the figure was 47 nM; with `CN1CCN(CCC2=CCc3c2cccc3-c2ccnc(F)c2)CC1` [Compound 33, 1-(2-(7-(2-fluoropyridin-4-yl)-1H-inden-3-yl)ethyl)-4-methylpiperazine maleate], 29 nM; with `CN1CCN(CCC2=CCc3c2cccc3-c2ccncc2F)CC1` [Compound 4, 1-(2-(7-(3-fluoropyridin-4-yl)-1H-inden-3-yl)ethyl)-4-methylpiperazine maleate], 24 nM. The compound `CN1CCN(CCC2=CCc3c2cccc3-c2ccncc2)CC1` [Compound 30, 1-methyl-4-(2-(7-(pyridin-4-yl)-1H-inden-3-yl)ethyl)piperazine maleate] yielded a Ki of 26 nM.

For `CN1CCN(CCC2=CCc3c2cccc3-c2ccc(F)cc2)CC1` [Compound 16, 1-(2-(7-(4-fluorophenyl)-1H-inden-3-yl)ethyl)-4-methylpiperazine maleate], the Ki came out at 12 nM. In turn, `Fc1ccc(-c2cccc3c2CC=C3CCN2CCOCC2)cc1` [Compound 13, 4-(2-(7-(4-fluorophenyl)-1H-inden-3-yl)ethyl)morpholine maleate] registered an inhibition constant Ki of 4 nM. Against the preceding compound, the Ki is about 3-fold lower. For the compound `CC1=C(CCN2CCOCC2)c2cccc(-c3ccccc3)c2C1` [Compound 11, 4-(2-(2-methyl-7-phenyl-1H-inden-3-yl)ethyl)morpholine maleate], the affinity, expressed as Ki, was 28 nM.

Compound `C1=C(CCN2CCOCC2)c2cccc(-c3cccnc3)c2C1` [Compound 34, 4-(2-(7-(pyridin-3-yl)-1H-inden-3-yl)ethyl)morpholine maleate] had a Ki of 82 nM. This Ki is about 2.9-fold higher than that of the compound before. On to `CN1CCN(CCC2=CCc3c2cccc3-c2cccnc2)CC1` [Compound 35, 1-methyl-4-(2-(7-(pyridin-3-yl)-1H-inden-3-yl)ethyl)piperazine maleate], for which the affinity corresponds to a Ki of 61 nM. For the compound `Cc1noc(C)c1-c1cccc2c1CC=C2CCN1CCN(C)CC1` [Compound 28, 3,5-dimethyl-4-(3-(2-(4-methylpiperazin-1-yl)ethyl)-1H-inden-7-yl)isoxazole maleate], the inhibitory constant (Ki) was 36 nM. The compound `Clc1ccc(-c2cccc3c2CC=C3CCN2CCOCC2)cc1Cl` [Compound 19, 4-(2-(7-(3,4-dichlorophenyl)-1H-inden-3-yl)ethyl)morpholine maleate] yielded a Ki of 12 nM. Compared with the last compound, the Ki is about 3-fold lower. `C1=C(CCN2CCCCC2)c2cccc(-c3ccccc3)c2C1` [Compound 8, 1-(2-(7-phenyl-1H-inden-3-yl)ethyl)piperidine maleate]: the affinity corresponds to a Ki of 7 nM. With `Fc1cccc(-c2cccc3c2CC=C3CCN2CCOCC2)c1` [Compound 18, 4-(2-(7-(3-fluorophenyl)-1H-inden-3-yl)ethyl)morpholine maleate], the Ki came out at 4 nM. This Ki is about 1.8-fold lower than that of the compound before.

`CN1CCN(CCC2=CCc3cc(-c4ccncc4)ccc32)CC1` [Compound 40, 1-methyl-4-(2-(6-pyridin-4-yl)-1H-inden-3-yl)ethyl)piperazine maleate] came in with a Ki of 143 nM. Compared with the last compound, the Ki is about 36-fold higher. On to `CN1CCN(CCC2=CCc3c2cccc3-c2cncnc2)CC1` [Compound 29, 5-(3-(2-(4-methylpiperazin-1-yl)ethyl)-1H-inden-7-yl)pyrimidine maleate], for which the affinity, expressed as Ki, was 168 nM. This Ki and that of the compound before are within 1.5-fold of each other. In the case of `COc1ccc(-c2cccc3c2CC=C3CCN2CCN(C)CC2)cn1` [Compound 36, 1-(2-(7-(6-methoxypyridin-3-yl)-1H-inden-3-yl)ethyl)-4-methylpiperazine maleate], affinity was put at a Ki of 37 nM.

In the case of `CN1CCN(CCC2=CCc3c2cccc3-c2ccccc2)CC1` [Compound 5, 1-methyl-4-(2-(7-phenyl-1H-inden-3-yl)ethyl)piperazine maleate], the Ki is 13 nM. This Ki lies about 2.8-fold lower than the previous one. In the case of `CN1CCN(CCC2=CCc3cc(-c4ccnc(F)c4)ccc32)CC1` [Compound 41, 1-(2-(6-(2-fluoropyridin-4-yl)-1H-inden-3-yl)ethyl)-4-methylpiperazine maleate], the Ki was 120 nM. `Fc1ccc(-c2cccc3c2CC=C3CCN2CCCCCC2)cc1` [Compound 2, 1-(2-(7-(4-fluorophenyl)-1H-inden-3-yl)ethyl)azepane hydrochloride] gave an inhibitory constant (Ki) of 12 nM. Compared with the last compound, the Ki is about 10-fold lower. Compound `Clc1cccc(N2CCN(CCC3=CCc4c3cccc4-c3ccccc3)CC2)c1` [Compound 7, 1-(3-chlorophenyl)-4-(2-(7-phenyl-1H-inden-3-yl)ethyl)piperazine maleate] came in with an inhibition constant Ki of 63 nM. This Ki is about 5.2-fold higher than that of the compound before. To `COc1ccc(-c2cccc3c2CC=C3CCN2CCN(C)CC2)cc1` [Compound 22, 1-(2-(7-(4-methoxyphenyl)-1H-inden-3-yl)ethyl)-4-methylpiperazine maleate] belongs 129 nM; to `CN1CCN(CCC2=CCc3c2cccc3-c2ccc(F)nc2)CC1` [Compound 37, 1-(2-(7-(6-fluoropyridin-3-yl)-1H-inden-3-yl)ethyl)-4-methylpiperazine maleate], 34 nM. Turning to `CN1CCN(CCC2=CCc3c2cccc3-c2cccc(F)c2)CC1` [Compound 17, 1-(2-(7-(3-fluorophenyl)-1H-inden-3-yl)ethyl)-4-methylpiperazine maleate], the Ki turned out to be 14 nM. In turn, `C1=C(CCN2CCOCC2)c2cccc(-c3ccsc3)c2C1` [Compound 25, 4-(2-(7-(thiophen-3-yl)-1H-inden-3-yl)ethyl)morpholine maleate] showed an inhibitory constant (Ki) of 6 nM. `Fc1ccc(-c2cccc3c2CC=C3CCN2CCN(c3ccccc3)CC2)cc1` [Compound 14, 1-(2-(7-(4-fluorophenyl)-1H-inden-3-yl)ethyl)-4-phenylpiperazine maleate] displayed an inhibitory constant (Ki) of 24 nM. In the case of `C1=C(CCN2CCN(c3ccccc3)CC2)c2cccc(-c3ccccc3)c2C1` [Compound 6, 1-phenyl-4-(2-(7-phenyl-1H-inden-3-yl)ethyl)piperazine maleate], the inhibition constant (Ki) came out at 31 nM. As to `CN1CCCN(CCC2=CCc3c2cccc3-c2ccncc2)CC1` [Compound 31, 1-methyl-4-(2-(7-(pyridin-4-yl)-1H-inden-3-yl)ethyl)-1,4-diazepane maleate], the inhibitory constant (Ki) came to 29 nM.
